Measurements from patent US20030212121A1, “Substituted N-(1,4,5,6-tetrahydro-cyclopentapyrazol-3-yl) derivatives, their production and use as pharmaceutical agents” (priority 2001, published 2003).

| SMILES | melting point [°C] |
| --- | --- |
| O=C(Cc1ccc(-c2ccc(F)cc2)cc1)Nc1n[nH]c2c1CCC2 [Example 1.2] | 161 to 163 |
| COc1cccc(-c2ccc(CC(=O)Nc3n[nH]c4c3CCC4)cc2)c1 [Example 1.5] | 110 to 114 |
| COc1ccc(-c2ccc(CC(=O)Nc3n[nH]c4c3CCC4)cc2)cc1 [Example 1.6] | 168 to 172 |
| CC(=O)c1cccc(-c2ccc(CC(=O)Nc3n[nH]c4c3CCC4)cc2)c1 [Example 1.7] | 150 |
| CC(=O)c1ccc(-c2ccc(CC(=O)Nc3n[nH]c4c3CCC4)cc2)cc1 [Example 1.8] | 112 to 114 |

Now from value to compound:

| melting point [°C] | SMILES |
| --- | --- |
| 180 to 181 | O=C(Cc1ccc(-c2cccc(F)c2)cc1)Nc1n[nH]c2c1CCC2 [Example 1.0, 2-(3′-Fluoro-biphenyl-4-yl)-N-(1,4,5,6-tetrahydro-cyclopentapyrazol-3-yl)-acetamide] |
| 179 to 181 | O=C(Cc1ccc(-c2ccccc2F)cc1)Nc1n[nH]c2c1CCC2 [Example 1.3] |
| 150 | COc1ccccc1-c1ccc(CC(=O)Nc2n[nH]c3c2CCC3)cc1 [Example 1.4] |
